Measured values from patent US10654876B2, “TH-302 solid forms and methods related thereto” (Molecular Templates, Inc., priority 2014, dated 2020).

Tests used:
[1] = Stability of crystalline form A to relative humidity; format: physicochemical; details: 15% relative humidity (RH) at 25° C.; anhydrous crystalline form A
Procedure: (§1) Crystalline form A of TH-302 is anhydrous which is stable to 15% relative humidity (RH) at 25° C. No change in the chemical purity of TH-302 was observed after one week when in accelerated stability tests at high temperature (40° C.) and high relative humidity (75% RH). An improvement in the physical appearance of a dosage form of a drug enhances both physician and patient acceptance and increases the likelihood of success of the treatment.

[2] = Accelerated stability test at high temperature and high relative humidity; format: physicochemical; details: 40° C., 75% RH, after one week
Procedure: as §1

In the case of `Cn1c(COP(=O)(NCCBr)NCCBr)cnc1[N+](=O)[O-]` [TH-302, N,N′-Bis(2-bromoethyl)phosphorodiamidic acid (1-methyl-2-nitro-1H-imidazol-5-yl)methyl ester], the “stability to relative humidity” value [1] is reported as “stable” and the “change in the chemical purity” value [2] is reported as “No change”.
